Results from patent publication US20230248834A1, “DEGRADATION OF (EGFR) BY CONJUGATION OF EGFR INHIBITORS WITH E3 LIGASE LIGAND AND METHODS OF USE” (BEIGENE, LTD., priority 2020, published 2023).
Like-named read-outs stand apart in the source and are kept apart here.

Assays:
Type in all cases: cell-based
EGFR L858R/C797S = target: T1, EGFR L858R/C797S (Homo sapiens, UniProt P00533, C797S/L858R); experiment: EGFR degradation HTRF assay in BaF3 LC cells; settings: for DC50: 16 h treatment, HTRF
T1 construct: expressed in transfected cells; host or cells: BaF3 LC
Method in brief: (§1)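 BaF3 cells expressing EGFR L858R/C797S or L858R/T790M/C797S treated 16 h at 37 °C with compounds (top 10 uM, 5-fold, 8 doses; 0.2% DMSO). Remaining EGFR quantified by HTRF in lysates after overnight antibody incubation. Degradation percentage versus DMSO controls; DC50 from four-parameter fit, Dmax as maximal degradation.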

EGFR L858R/T790M/C797S = target: T2, EGFR L858R/T790M/C797S (Homo sapiens, UniProt P00533, C797S/L858R/T790M); experiment: EGFR degradation HTRF assay in BaF3-LTC cells; settings: for Dmax: read-out: BaF3-LTC Dmax (%)
T2 construct: expressed in transfected cells; host or cells: BaF3-LTC
Method in brief: as §1

EGFR Del19/C797S = experiment: EGFR degradation HTRF assay in H1975-clone #23 (H1975 #23 DC); settings: H1975-clone #23 (Del19/C797S); for DC50: 16 h treatment, HTRF; for H1975 #23 DC Dmax (%): maximum percentage of inhibition (degradation)
Procedure: (§2) Cell Line Generation H1975-clone #28(Del19/T790M/C797S) and H1975-clone #23(Del19/C797S). EGFR-Del19/T790M/C797S and EGFR-Del19/C797S were stably expressed in H1975 cell lines by lentivirus-mediated over-expression, respectively. The EGFR over-expressed cells then underwent gene knockout, in which the EGFR targeting sgRNA was designed to only target the endogenous EGFR copies and preserve the exogenous EGFR copies. Followed by the gene knockout, the edited H1975 cells were seeded in 96 well plates at the concentration of 1 cell/well, cultured for about 2 weeks to allow single clones formation. The formed clones were screened by DNA sequencing and whole exon sequencing analysis for the desired edition. H1975-clone #28 and H1975-clone #23 were finally confirmed as homozygous Del19/T790M/C797S EGFR and Del19/C797S EGFR clones, respectively.
(§3) After 16 h treatment, add HTRF lysis buffer to each well; seal the plate and incubate 1 hour at room temperature on a plate shaker; Once the cells are lysed, 16 μL of cell lysate are transferred to a PE 384-well HTRF detection plate; 4 μL of pre-mixed HTRF antibodies are added to each well; Cover the plate with a plate sealer, spin 1000 rpm for 1 min, Incubate overnight at room temperature; Read on BMG PheraStar with HTRF protocol (337 nm-665 nm-620 nm).
(§4) The inhibition (degradation) percentage of the compound was calculated by the following equation: Inhibition percentage of Compound=100−100×(Signal−low control)/(High control−low control), wherein signal=each test compound group
(§5) High control=Cell group with added DMSO and without compound, indicating microplate readings without EGFR degradation;
(§6) Dmax is the maximum percentage of inhibition (degradation).
(§7) The IC50 (DC50) value of a compound can be obtained by fitting the following equation
(§8) Y=Bottom+(TOP−Bottom)/(1+((IC50/X)^hillslope))
Wherein, X and Y are known values, and IC50, Hillslope, Top and Bottom are the parameters obtained by fitting with software. Y is the inhibition percentage (calculated from the equation), X is the concentration of the compound; IC50 is the concentration of the compound when the 50% inhibition is reached. The smaller the IC50 value is, the stronger the inhibitory ability of the compound is. Vice versa, the higher the IC50 value is, the weaker the inhibitory ability of the compound is; Hillslope represents the slope of the fitted curve, generally around 1*; Bottom represents the minimum value of the curve obtained by data fitting, which is generally 0%±20%; Top represents the maximum value of the curve obtained by data fitting, which is generally 100%±20%. The experimental data were fitted by calculating and analyzing with Dotmatics data analysis software.

EGFR Del19/T790M/C797S = experiment: EGFR degradation HTRF assay in H1975-clone #28 (H1975 #28 DTC); settings: H1975-clone #28 (Del19/T790M/C797S), maximum percentage of inhibition (degradation)
Procedure: as §2, §3, §4, §5, §6, §7, §8
Wherein, X and Y are known values, and IC50, Hillslope, Top and Bottom are the parameters obtained by fitting with software. […]

[1] = BaF3 LC (L858R/C797S), maximum percentage of inhibition (degradation), read-out: BaF3 LC Dmax (%)
[2] = BaF3-LTC (L858R/T790M/C797S), maximum percentage of inhibition (degradation)

T1 sequence (P00533 25-1210 C797S/L858R): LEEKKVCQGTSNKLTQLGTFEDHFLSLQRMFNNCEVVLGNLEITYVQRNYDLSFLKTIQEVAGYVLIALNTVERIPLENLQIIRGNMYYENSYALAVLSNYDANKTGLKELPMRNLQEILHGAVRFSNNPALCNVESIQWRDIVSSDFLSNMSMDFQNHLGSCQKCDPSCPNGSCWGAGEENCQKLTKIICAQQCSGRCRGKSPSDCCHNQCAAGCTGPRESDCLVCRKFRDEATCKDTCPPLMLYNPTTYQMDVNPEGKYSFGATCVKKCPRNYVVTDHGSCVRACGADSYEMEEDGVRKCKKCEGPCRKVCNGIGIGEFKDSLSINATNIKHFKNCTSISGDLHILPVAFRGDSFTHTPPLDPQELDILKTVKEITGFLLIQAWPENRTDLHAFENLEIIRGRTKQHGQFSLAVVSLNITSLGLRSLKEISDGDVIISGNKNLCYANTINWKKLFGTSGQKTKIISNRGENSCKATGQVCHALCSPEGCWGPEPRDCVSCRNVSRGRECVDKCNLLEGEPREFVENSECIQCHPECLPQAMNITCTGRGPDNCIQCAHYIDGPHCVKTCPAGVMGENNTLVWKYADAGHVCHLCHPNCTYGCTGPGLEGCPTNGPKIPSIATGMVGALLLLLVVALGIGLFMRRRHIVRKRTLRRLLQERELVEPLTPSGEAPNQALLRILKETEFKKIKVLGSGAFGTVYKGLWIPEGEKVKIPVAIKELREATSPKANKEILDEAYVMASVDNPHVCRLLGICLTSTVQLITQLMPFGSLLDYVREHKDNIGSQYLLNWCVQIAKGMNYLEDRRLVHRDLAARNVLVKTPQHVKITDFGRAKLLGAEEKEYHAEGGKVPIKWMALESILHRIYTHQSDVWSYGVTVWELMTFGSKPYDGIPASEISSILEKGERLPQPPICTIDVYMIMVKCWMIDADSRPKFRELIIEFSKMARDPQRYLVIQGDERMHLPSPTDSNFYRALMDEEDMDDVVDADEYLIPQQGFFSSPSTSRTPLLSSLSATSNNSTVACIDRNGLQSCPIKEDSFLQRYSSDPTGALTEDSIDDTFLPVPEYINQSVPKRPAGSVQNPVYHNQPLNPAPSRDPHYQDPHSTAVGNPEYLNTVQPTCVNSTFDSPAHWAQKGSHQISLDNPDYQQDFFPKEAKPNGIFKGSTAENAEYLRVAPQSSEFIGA
T2 sequence (P00533 25-1210 T790M/C797S/L858R): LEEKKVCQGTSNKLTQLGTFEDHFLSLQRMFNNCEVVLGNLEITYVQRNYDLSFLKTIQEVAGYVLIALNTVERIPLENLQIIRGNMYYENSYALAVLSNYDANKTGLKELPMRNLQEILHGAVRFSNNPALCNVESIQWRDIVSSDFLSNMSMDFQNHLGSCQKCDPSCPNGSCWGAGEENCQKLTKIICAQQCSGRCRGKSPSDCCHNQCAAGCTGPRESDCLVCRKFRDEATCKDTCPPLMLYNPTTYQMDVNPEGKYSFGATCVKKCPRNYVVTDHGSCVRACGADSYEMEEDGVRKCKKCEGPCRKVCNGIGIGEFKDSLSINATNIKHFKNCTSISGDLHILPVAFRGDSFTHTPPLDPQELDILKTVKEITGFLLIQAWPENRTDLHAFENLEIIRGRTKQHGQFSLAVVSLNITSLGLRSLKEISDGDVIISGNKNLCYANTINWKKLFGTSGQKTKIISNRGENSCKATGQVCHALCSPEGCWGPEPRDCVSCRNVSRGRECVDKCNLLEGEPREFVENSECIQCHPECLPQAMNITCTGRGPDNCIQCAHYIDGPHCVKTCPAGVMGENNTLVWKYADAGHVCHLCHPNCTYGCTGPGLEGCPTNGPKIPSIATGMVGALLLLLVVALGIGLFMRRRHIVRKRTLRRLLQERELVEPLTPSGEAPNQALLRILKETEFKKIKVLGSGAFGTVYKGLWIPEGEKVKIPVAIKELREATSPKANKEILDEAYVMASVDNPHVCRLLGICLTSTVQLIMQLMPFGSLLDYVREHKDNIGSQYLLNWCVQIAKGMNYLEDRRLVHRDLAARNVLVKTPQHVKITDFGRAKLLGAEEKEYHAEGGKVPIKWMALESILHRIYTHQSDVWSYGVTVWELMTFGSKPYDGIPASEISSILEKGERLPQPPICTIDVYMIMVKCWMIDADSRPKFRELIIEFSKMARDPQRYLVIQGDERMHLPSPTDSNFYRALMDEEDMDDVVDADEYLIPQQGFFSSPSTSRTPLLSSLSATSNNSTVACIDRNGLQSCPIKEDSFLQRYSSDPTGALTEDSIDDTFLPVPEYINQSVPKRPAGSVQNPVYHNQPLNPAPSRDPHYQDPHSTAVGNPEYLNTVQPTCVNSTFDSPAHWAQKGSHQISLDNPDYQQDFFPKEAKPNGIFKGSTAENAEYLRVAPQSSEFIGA

Structure (SMILES) | Dmax (EGFR L858R/C797S; [1]) | Dmax (EGFR L858R/T790M/C797S; [2]) | Dmax (EGFR L858R/T790M/C797S) | H1975 # 28 DTC Dmax (%) (EGFR Del19/T790M/C797S) | other results
CCc1cc(Nc2ncc(Br)c(Nc3ccc4nc(C)ccc4c3P(C)(C)=O)n2)c(OC2CC2)cc1N1CCC(N2CCN(CCc3cc(F)c([C@H]4CCC(=O)NC4=O)c(F)c3)CC2)CC1 [Example 459, (R)-3-(4-(2-(4-(1-(4-((5-bromo-4-((5-(dimethylphosphoryl)-2-methylquinolin-6-yl)amino)pyrimidin-2-yl)amino)-5-cyclopropoxy-2-ethylphenyl)piperidin-4-yl)piperazin-1-yl)ethyl)-2,6-difluorophenyl)piperidine-2,6-dione] | 76.6% | 86.9% |  |  | DC50 (EGFR L858R/C797S; BaF3 LC (L858R/C797S)): 20.7 nM; DC50 (EGFR L858R/T790M/C797S; BaF3-LTC (L858R/T790M/C797S), 16 h treatment, HTRF): 7.54 nM; DC50 (EGFR Del19/C797S): 6.01 nM; H1975 #23 DC Dmax (%) (EGFR Del19/C797S): 91.45%
CCc1ncc2c(P(C)(C)=O)c(Nc3nc(Nc4cc(CC)c(N5CCC(N6CCN(CCc7ccc8c(c7)oc(=O)n8C7CCC(=O)NC7=O)CC6)CC5)cc4OC)ncc3Br)ccc2n1 (centres unmarked) [Example 499, 3-(6-(2-(4-(1-(4-((5-bromo-4-((5-(dimethylphosphoryl)-2-ethylquinazolin-6-yl)amino)pyrimidin-2-yl)amino)-2-ethyl-5-methoxyphenyl)piperidin-4-yl)piperazin-1-yl)ethyl)-2-oxobenzo[d]oxazol-3(2H)-yl)piperidine-2,6-dione] |  |  | 87.8% | 77.41% | Dmax (EGFR L858R/C797S; BaF3, read-out: BaF3 LC Dmax (%)): 91%
CCOc1cc(N2CCC(N3CCN(CCc4cccc5c4oc(=O)n5C4CCC(=O)NC4=O)CC3)CC2)c(CC)cc1Nc1ncc(Br)c(Nc2ccc3nc(CC)ncc3c2P(C)(C)=O)n1 (centres unmarked) [Example 563, 3-(7-(2-(4-(1-(4-((5-bromo-4-((5-(dimethylphosphoryl)-2-ethylquinazolin-6-yl)amino)pyrimidin-2-yl)amino)-5-ethoxy-2-ethylphenyl)piperidin-4-yl)piperazin-1-yl)ethyl)-2-oxobenzo[d]oxazol-3(2H)-yl)piperidine-2,6-dione] |  |  | 92.6% | 81.88% | 
CCOc1cc(N2CCC(N3CCN(CC4CN(c5cccc6c5oc(=O)n6C5CCC(=O)NC5=O)C4)CC3)CC2)c(CC)cc1Nc1ncc(Br)c(Nc2ccc3nc(CC)ncc3c2P(C)(C)=O)n1 (centres unmarked) [Example 566, 3-(7-(3-((4-(1-(4-((5-bromo-4-((5-(dimethylphosphoryl)-2-ethylquinazolin-6-yl)amino)pyrimidin-2-yl)amino)-5-ethoxy-2-ethylphenyl)piperidin-4-yl)piperazin-1-yl)methyl)azetidin-1-yl)-2-oxobenzol[d]oxazol-3(2H)-yl)piperidine-2,6-dione] |  |  | 93.9% | 84.02% | 
CCc1ccc2c(P(C)(C)=O)c(Nc3nc(Nc4cc(CC)c(N5CCC(N6CCN(C(=O)[C@H]7CN(c8cc(F)c([C@H]9CCC(=O)NC9=O)c(F)c8)CC7(C)C)CC6)CC5)cc4OC)ncc3Br)ccc2n1 [Example 754, (R)-3-(4-((R)-4-(4-(1-(4-((5-bromo-4-((5-(dimethylphosphoryl)-2-ethylquinolin-6-yl)amino)pyrimidin-2-yl)amino)-2-ethyl-5-methoxyphenyl)piperidin-4-yl)piperazine-1-carbonyl)-3,3-dimethylpyrrolidin-1-yl)-2,6-difluorophenyl)piperidine-2,6-dione] | 87.3% | 96.3% |  |  | 

Now from value to compound, other results behind:

Dmax (EGFR L858R/C797S; [1]) | Dmax (EGFR L858R/T790M/C797S; [2]) | Structure (SMILES) | Dmax (EGFR L858R/T790M/C797S) | H1975 # 28 DTC Dmax (%) (EGFR Del19/T790M/C797S) | other results
90% | 95.6% | COc1cc(N2CCC3(CCN(CCCCCOc4cccc5c4CN(C4CCC(=O)NC4=O)C5=O)CC3)CC2)c(C)cc1Nc1ncc(Br)c(Nc2ccc3nccnc3c2P(C)(C)=O)n1 (centres unmarked) [Example 542, 3-(4-((5-(9-(4-((5-bromo-4-((5-(dimethylphosphoryl)quinoxalin-6-yl)amino)pyrimidin-2-yl)amino)-5-methoxy-2-methylphenyl)-3,9-diazaspiro[5.5]undecan-3-yl)pentyl)oxy)-1-oxoisoindolin-2-yl)piperidine-2,6-dione] |  |  | DC50 (EGFR L858R/C797S; BaF3 LC (L858R/C797S)): 16.2 nM; DC50 (EGFR Del19/C797S): > 10000 nM; H1975 #23 DC Dmax (%) (EGFR Del19/C797S): 31.04%
88.9% | 93.2% | CCc1cc(Nc2ncc(Br)c(Nc3ccc4c(=O)n(CC)ncc4c3P(C)(C)=O)n2)c(OC)cc1N1CCC(N2CCN(CCc3cc(F)c([C@H]4CCC(=O)NC4=O)c(F)c3)CC2)CC1 [Example 753, (R)-3-(4-(2-(4-(1-(4-((5-bromo-4-((5-(dimethylphosphoryl)-2-ethyl-1-oxo-1,2-dihydrophthalazin-6-yl)amino)pyrimidin-2-yl)amino)-2-ethyl-5-methoxyphenyl)piperidin-4-yl)piperazin-1-yl)ethyl)-2,6-difluorophenyl)piperidine-2,6-dione] |  |  | 
91.7% | 98.6% | CCc1ccc2c(P(C)(C)=O)c(Nc3nc(Nc4cc(CC)c(N5CCC(N6CCN(C(=O)C7CN(c8cc(F)c([C@H]9CCC(=O)NC9=O)c(F)c8)C7)CC6)CC5)cc4OC)ncc3Br)ccc2n1 [Example 755, (R)-3-(4-(3-(4-(1-(4-((5-bromo-4-((5-(dimethylphosphoryl)-2-ethylquinolin-6-yl)amino)pyrimidin-2-yl)amino)-2-ethyl-5-methoxyphenyl)piperidin-4-yl)piperazine-1-carbonyl)azetidin-1-yl)-2,6-difluorophenyl)piperidine-2,6-dione] |  |  | 
94.5% | 97% | CCc1cc(Nc2ncc(Br)c(Nc3ccc4c(=O)n(C)ncc4c3P(C)(C)=O)n2)c(OC)cc1N1CCC(N2CCN(CCc3cccc4c3C3(CC3)C(=O)N4C3CCC(=O)NC3=O)CC2)CC1 (centres unmarked) [Example 756, 3-(4′-(2-(4-(1-(4-((5-bromo-4-((5-(dimethylphosphoryl)-2-methyl-1-oxo-1,2-dihydrophthalazin-6-yl)amino)pyrimidin-2-yl)amino)-2-ethyl-5-methoxyphenyl)piperidin-4-yl)piperazin-1-yl)ethyl)-2′-oxospiro[cyclopropane-1,3′-indolin]-1′-yl)piperidine-2,6-dione] |  |  | 
